Where “and” joins values, the source holds several entries; their conditions need not be identical. Equal entries are not always repeated. Where two headings read alike, the source gives them in different places.
Experiments:
MjTyrRS variants [1] = target: T1, MjTyrRS variants (Methanocaldococcus jannaschii, UniProt Q57834, D158A/F108Q/H70G/L162N/L65E/Q109C/Y32G); test: Intact cell fluorescence assay of HYs incorporation into SUMO-sfGFP; format: cell-based; conditions: for Fluorescence Instensity: Synthetase B48RS; for Incorporation efficiency (sfGFP fluorescence) versus control without HYs additions: mutant B48RS, 1 mM HY, E. coli DH10b
T1 construct: expressed in transfected cells
T1 sequence (Q57834 whole entry Y32G/L65E/H70G/F108Q/Q109C/D158A/L162N): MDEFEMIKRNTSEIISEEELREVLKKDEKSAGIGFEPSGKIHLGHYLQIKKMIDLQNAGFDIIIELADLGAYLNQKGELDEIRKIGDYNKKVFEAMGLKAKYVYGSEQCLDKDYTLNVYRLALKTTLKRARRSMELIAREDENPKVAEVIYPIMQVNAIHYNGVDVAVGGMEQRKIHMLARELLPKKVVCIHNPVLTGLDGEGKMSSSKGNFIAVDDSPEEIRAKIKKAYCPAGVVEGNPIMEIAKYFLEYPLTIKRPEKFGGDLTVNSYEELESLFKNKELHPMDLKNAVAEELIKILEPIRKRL
Description: (§1) The intact cell fluorescence assay was performed to approximately compare the Br2Y and Cl2Y incorporation efficiency of screened MjTyrRSs as well as to estimate their promiscuity against other Tyr analogues. Since the gene expression of SUMO-sfGFP was driven by T5 promoter on the one round positive selection plasmid, SUMO-sfGFP can be directly expressed in DH10b strain. […] Next day, an overnight culture was inoculated in a well at a ratio of 1:100 containing 300 μL TB medium supplemented with 50 μg/mL Kan,100 μg/mL Amp, 0.5 mM IPTG as well as 1 mM HYs while the corresponding control lacked the HYs. Cells were grown in 96 well plates (Ibidi) with orbital shaking (2 mm amplitude) for 24 h at 37 °C covered with a gas-permeable foil (Sigma Aldrich, Taufkirchen, Germany). […] After 24 h incubation, the optimal density and fluorescence was measured via top reading after the gas-permeable foil was removed. Each measurement was done in triplicate.

MjTyrRS variants [2] = target: T2, MjTyrRS variants (Methanocaldococcus jannaschii, UniProt Q57834, D158A/F108N/H70G/L162C/L65E/Y32V); test: as above; format: cell-based; conditions: Synthetase C64RS
T2 construct: expressed in transfected cells
T2 sequence (Q57834 whole entry Y32V/L65E/H70G/F108N/D158A/L162C): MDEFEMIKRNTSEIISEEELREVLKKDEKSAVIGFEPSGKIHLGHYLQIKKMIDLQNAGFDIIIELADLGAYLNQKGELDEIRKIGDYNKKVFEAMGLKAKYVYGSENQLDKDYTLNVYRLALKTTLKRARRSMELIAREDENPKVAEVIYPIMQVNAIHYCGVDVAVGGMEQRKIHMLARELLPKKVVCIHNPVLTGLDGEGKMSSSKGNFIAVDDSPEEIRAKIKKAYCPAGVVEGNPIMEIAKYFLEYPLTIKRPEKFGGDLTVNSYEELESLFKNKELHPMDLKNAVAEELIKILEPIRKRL
Description: as §1

MjTyrRS variants [3] = test: as above; format: cell-based, Methanocaldococcus jannaschii
Description: as §1

FtsZ-YFP-mts = FtsZ-YFP-mts (Escherichia coli, UniProt P0A9A6); format: biochemical; set-up: made in house; host or cells: E. coli BL21(DE3) for the wild type; conditions: 5 μM protein, 1 mM GTP
Sequence of FtsZ-YFP-mts (P0A9A6 1-366): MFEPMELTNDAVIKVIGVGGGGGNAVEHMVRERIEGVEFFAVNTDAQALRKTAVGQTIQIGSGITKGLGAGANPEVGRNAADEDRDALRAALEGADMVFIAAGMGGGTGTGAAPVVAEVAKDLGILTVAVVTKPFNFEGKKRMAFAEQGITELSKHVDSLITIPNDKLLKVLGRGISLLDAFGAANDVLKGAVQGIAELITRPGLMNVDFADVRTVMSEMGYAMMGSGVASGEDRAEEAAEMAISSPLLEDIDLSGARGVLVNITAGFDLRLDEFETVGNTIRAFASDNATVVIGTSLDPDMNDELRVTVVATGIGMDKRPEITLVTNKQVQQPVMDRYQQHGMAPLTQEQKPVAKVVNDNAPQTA
Description: Reactions were performed every 20 s for a total time of 120 s. After 30 min of incubation with BIOMOL® GREEN at room temperature, the absorbance of the samples at 620 nm was monitored by TECAN plate reader. The phosphate release concentrations were calculated based on a phosphate standard curve.

[4] = Side-chain acidity: pKa by 1H NMR titration of free amino acids; format: physicochemical; conditions: for pKa: aqueous KH2PO4 solution titrated with sodium hydroxide; for pKa of the phenolic side-chain: experimental error ±0.15
Description: 10–20 mg of an amino acid, 50 mg of KH2PO4 was dissolved in 15 ml of water and titrated by sodium hydroxide solution to distinct pH values. 500 μl were taken to NMR tubes, 50 μl deuterium oxidewas added and ^1H NMR spectra were measured using W5 pulse tray water suppression at 500 MHz frequency. The chemical shifts were plotted against pH and analyzed using Henderson-Hasselbalch equation to deliver the pKa values. Experimental error ±0.15.

[5] = experimental error ±0.15, read-out: Ammonium pKa
[6] = experimental error ±0.15, read-out: pKa of the phenolic side-chain

Row | Compound | Fluorescence Instensity (MjTyrRS variants [1]) | Incorporation efficiency (sfGFP fluorescence) versus control without HYs additions (MjTyrRS variants [1]) | Fluorescence Instensity (MjTyrRS variants [2]) | Fluorescence Instensity (MjTyrRS variants [3]; Synthetase B4RS) | Fluorescence Instensity (MjTyrRS variants [3]; Synthetase B12RS) | Fluorescence Instensity (MjTyrRS variants [3]; Synthetase B37RS) | Fluorescence Instensity (MjTyrRS variants [3]; Synthetase B39RS) | Fluorescence Instensity (MjTyrRS variants [3]; Synthetase C5RS) | Fluorescence Instensity (MjTyrRS variants [3]; Synthetase C45RS) | Fluorescence Instensity (MjTyrRS variants [3]; Synthetase C61RS) | GTPase activity, Average (FtsZ-YFP-mts; average of two repeats) [pi/min] | GTPase activity, single repeats (FtsZ-YFP-mts; repeat 1 and repeat 2) | pKa [4, 5] | pKa [4, 6] | pKa of the phenolic side-chain [4]
1 | N[C@@H](Cc1cc(Br)c(O)c(Br)c1)C(=O)O [Br2Y, 3,5-dibromo-L-tyrosine] | 0.6442 a.u. and 0.7285 a.u. and 0.5778 a.u. | more than 100 fold | 0.543 a.u. and 0.6311 a.u. and 0.4752 a.u. | 0.3153 a.u. and 0.3784 a.u. and 0.2551 a.u. | 0.5915 a.u. and 0.6712 a.u. and 0.4959 a.u. | 0.6 a.u. and 0.6999 a.u. and 0.4943 a.u. | 0.615 a.u. and 0.7381 a.u. and 0.4945 a.u. | 0.6366 a.u. and 0.6936 a.u. and 0.5742 a.u. | 0.5945 a.u. and 0.6865 a.u. and 0.5035 a.u. | 0.4306 a.u. and 0.4884 a.u. and 0.3801 a.u. | 3.469 | 3.2195 pi/min and 3.7182 pi/min | 9.47 | 6.5 | 6.42 and 6.4
2 | N[C@@H](Cc1ccc(O)c(Br)c1)C(=O)O [BrY, 3-bromo-L-tyrosine] | 0.5063 a.u. and 0.6051 a.u. and 0.4087 a.u. | more than 100 fold | 0.3329 a.u. and 0.3931 a.u. and 0.2701 a.u. | 0.06278 a.u. and 0.07689 a.u. and 0.04597 a.u. | 0.408 a.u. and 0.4614 a.u. and 0.3514 a.u. | 0.2591 a.u. and 0.2929 a.u. and 0.2246 a.u. | – | 0.7502 a.u. and 0.845 a.u. and 0.6301 a.u. | 0.7918 a.u. and 0.9328 a.u. and 0.6597 a.u. | 0.2377 a.u. and 0.2625 a.u. and 0.2104 a.u. | – | – | 9.52 | 8.3 | 8.29

— paper PMC9385671 (Nature Communications, 2022)
